# Laboratory results as given in patent US20250136606A1, “MODULATORS OF TRPML, THEIR COMPOSITIONS AND METHODS OF USE” (Caraway Therapeutics, Inc., priority 2021, published 2025).
# Read-outs that look alike come from different tables or passages of the source.
# Assays:
# Assay type in all cases: cell-based
# TRPML1 = TRPML1 (Homo sapiens, UniProt Q9GZU1); experiment: Fluorescent TRPML1 assay (Fluo4-AM calcium fluorescence in doxycycline-induced HEK-293 Trex cells)
# Outline: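 hTRPML1 (mutated for cell-surface expression) in HEK-293 Trex, dox 0.5 ug/mL o/n; Fluo4-AM 1 uM ~60 min, then ~60 min de-esterification, dark; modified Ringer's + 10 mM Ca. Cmpds 20 uM–6 nM final, half-log, n=3. Ex480/Em540; % activity vs ctrls; EC50 by nonlinear regression.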
# TRPML2 = target: T1, TRPML2 (Homo sapiens, UniProt Q8IZK6); experiment: Fluorescent TRPML2 assay (performed as for TRPML1, substituting the TRPML2 subtype)
# T1 construct: expressed in transfected cells
# T1 sequence (Q8IZK6 1-566): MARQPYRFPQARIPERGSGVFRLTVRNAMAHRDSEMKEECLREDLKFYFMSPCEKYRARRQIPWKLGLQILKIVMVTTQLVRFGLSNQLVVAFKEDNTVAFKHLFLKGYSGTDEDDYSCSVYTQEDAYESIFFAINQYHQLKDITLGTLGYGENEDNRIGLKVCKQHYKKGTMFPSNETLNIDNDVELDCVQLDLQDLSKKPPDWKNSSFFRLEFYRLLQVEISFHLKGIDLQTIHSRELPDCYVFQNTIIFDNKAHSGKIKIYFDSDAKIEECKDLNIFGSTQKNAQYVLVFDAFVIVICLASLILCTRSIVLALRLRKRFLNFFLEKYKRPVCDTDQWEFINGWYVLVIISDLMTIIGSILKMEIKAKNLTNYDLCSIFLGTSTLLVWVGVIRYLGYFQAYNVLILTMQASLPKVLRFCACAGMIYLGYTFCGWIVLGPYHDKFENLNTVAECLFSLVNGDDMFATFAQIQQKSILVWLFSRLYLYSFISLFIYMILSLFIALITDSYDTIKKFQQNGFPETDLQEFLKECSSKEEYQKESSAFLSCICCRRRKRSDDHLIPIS
# Outline: (§1)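 Calcium-influx readout: Fluo4 fluorescence at 480/540 nm, normalised to positive and negative controls per plate, EC50 fitted by non-linear regression. Cells were HEK-293 Trex stable lines, channel expression induced overnight with 0.5 ug/mL doxycycline; tested at 20 micromolar down to 6 nanomolar final, half-log steps, triplicate.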
# TRPML3 = target: T2, TRPML3 (Homo sapiens, UniProt Q8TDD5); experiment: Fluorescent TRPML3 assay (performed as for TRPML1, substituting the TRPML3 subtype)
# T2 construct: expressed in transfected cells
# T2 sequence (Q8TDD5 1-553): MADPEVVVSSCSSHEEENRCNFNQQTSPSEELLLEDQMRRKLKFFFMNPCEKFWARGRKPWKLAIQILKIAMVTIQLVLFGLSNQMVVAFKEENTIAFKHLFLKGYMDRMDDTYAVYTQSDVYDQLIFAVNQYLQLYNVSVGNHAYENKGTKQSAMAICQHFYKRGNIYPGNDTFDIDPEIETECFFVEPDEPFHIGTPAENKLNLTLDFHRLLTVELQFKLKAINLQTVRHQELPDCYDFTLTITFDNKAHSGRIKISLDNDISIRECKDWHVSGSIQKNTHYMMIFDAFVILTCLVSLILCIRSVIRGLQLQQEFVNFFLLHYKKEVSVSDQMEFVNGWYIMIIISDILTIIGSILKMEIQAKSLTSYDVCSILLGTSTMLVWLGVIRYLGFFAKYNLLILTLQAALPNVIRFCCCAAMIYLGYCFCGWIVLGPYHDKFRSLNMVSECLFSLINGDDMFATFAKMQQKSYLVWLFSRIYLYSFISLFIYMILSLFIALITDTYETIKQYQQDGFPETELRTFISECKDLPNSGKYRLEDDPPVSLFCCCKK
# Outline: as §1
# Sequence of TRPML1 (Q9GZU1 whole entry L15A/L16A/L577A/L578A, form open): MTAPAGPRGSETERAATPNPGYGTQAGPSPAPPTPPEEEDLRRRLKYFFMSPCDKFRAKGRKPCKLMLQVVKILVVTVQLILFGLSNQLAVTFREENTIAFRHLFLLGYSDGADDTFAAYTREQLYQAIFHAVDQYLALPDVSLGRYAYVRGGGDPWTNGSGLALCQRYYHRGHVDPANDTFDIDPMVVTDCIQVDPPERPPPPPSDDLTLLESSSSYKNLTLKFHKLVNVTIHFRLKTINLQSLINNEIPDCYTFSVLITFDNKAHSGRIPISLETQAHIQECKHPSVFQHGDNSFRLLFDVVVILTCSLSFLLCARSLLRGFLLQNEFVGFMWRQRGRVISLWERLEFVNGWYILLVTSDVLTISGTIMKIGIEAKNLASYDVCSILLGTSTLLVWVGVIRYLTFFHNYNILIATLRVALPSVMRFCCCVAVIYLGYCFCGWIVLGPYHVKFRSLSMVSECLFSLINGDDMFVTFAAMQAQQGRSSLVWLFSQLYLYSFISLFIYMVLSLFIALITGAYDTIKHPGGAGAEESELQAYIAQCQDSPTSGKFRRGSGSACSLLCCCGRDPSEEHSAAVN
Compound,EC50 (TRPML1),EC50 (TRPML2),EC50 (TRPML3),EC50 (TRPML1; fluorescent calcium assay),EC50 (TRPML2; fluorescent calcium assay),EC50 (TRPML3; fluorescent calcium assay)
"CCc1ccnc(-n2cc(C3CC3)c3c(N4C[C@@H](C)N(C(=O)OC(C)(C)C)C[C@@H]4C)ncnc32)c1 [Compound 717, tert-butyl (2R,5S)-4-(5-cyclopropyl-7-(4-ethylpyridin-2-yl)-7H-pyrrolo[2,3-d]pyrimidin-4-yl)-2,5-dimethylpiperazine-1-carboxylate]",< 100 nM,100 to 500 nM,< 100 nM,–,–,–
"C[C@H]1CN(C(=O)OC(C)(C)C(F)(F)F)CCN1c1ncnc2c1c(-c1cncnc1)cn2-c1cccc(C#N)c1 [Compound 336, 1,1,1-trifluoro-2-methylpropan-2-yl (S)-4-(7-(3-cyanophenyl)-5-(pyrimidin-5-yl)-7H-pyrrolo[2,3-d]pyrimidin-4-yl)-3-methylpiperazine-1-carboxylate]",–,–,–,100 to 500 nM,> 2000 nM,< 100 nM
"C[C@H]1CN(C(=O)OC(C)(C)C)CCN1c1ncnc2c1c(C1CC1)cn2-c1cc(Cl)ccn1 [Compound 457, tert-butyl(S)-4-(7-(4-chloropyridin-2-yl)-5-cyclopropyl-7H-pyrrolo[2,3-d]pyrimidin-4-yl)-3-methylpiperazine-1-carboxylate]",–,–,–,< 100 nM,< 100 nM,< 100 nM
"C[C@H]1CN(C(=O)OC(C)(C)C)CCN1c1ncnc2c1c(-c1ccccc1F)cn2-c1cc(C#N)cnn1 [Compound 447, tert-butyl (S)-4-(7-(5-cyanopyridazin-3-yl)-5-(2-fluorophenyl)-7H-pyrrolo[2,3-d]pyrimidin-4-yl)-3-methylpiperazine-1-carboxylate]",–,–,–,< 100 nM,< 100 nM,< 100 nM
"C[C@H]1CN(C(=O)OC(C)(C)C)CCN1c1ncnc2c1c(C1CC1)cn2C1CCCC1 [Compound 339, tert-butyl (S)-4-(7-cyclopentyl-5-cyclopropyl-7H-pyrrolo[2,3-d]pyrimidin-4-yl)-3-methylpiperazine-1-carboxylate]",–,–,–,100 to 500 nM,> 2000 nM,100 to 500 nM
"Cc1cn(-c2cc(C#N)ccn2)c2ncnc(N3CCN(C(=O)OC(C)(C)C)[C@H](C)C3)c12 [Compound 680, tert-butyl (R)-4-(7-(4-cyanopyridin-2-yl)-5-methyl-7H-pyrrolo[2,3-d]pyrimidin-4-yl)-2-methylpiperazine-1-carboxylate]",< 100 nM,< 100 nM,< 100 nM,–,–,–
"C[C@@H]1CN(c2ncnc3c2c(C(F)(F)F)cn3-c2cc(C#N)ccn2)[C@@H](C)CN1C(=O)OC1CCC1 [Compound 516, cyclobutyl (2R,5S)-4-(7-(4-cyanopyridin-2-yl)-5-(trifluoromethyl)-7H-pyrrolo[2,3-d]pyrimidin-4-yl)-2,5-dimethylpiperazine-1-carboxylate]",< 100 nM,< 100 nM,< 100 nM,–,–,–
"C[C@@H]1CN(c2ncnc3c2c(-c2ccccc2F)cn3-c2ccccn2)CCN1C(=O)OC(C)(C)C [Compound 192, tert-butyl (R)-4-(5-(2-fluorophenyl)-7-(pyridin-2-yl)-7H-pyrrolo[2,3-d]pyrimidin-4-yl)-2-methylpiperazine-1-carboxylate]",–,–,–,< 100 nM,100 to 500 nM,< 100 nM
"Cc1nccnc1-c1cn(-c2cc(F)cc(F)c2)c2ncnc(N3CCN(C(=O)OC(C)(C)CF)C[C@@H]3C)c12 [Compound 248, 1-fluoro-2-methylpropan-2-yl (S)-4-(7-(3,5-difluorophenyl)-5-(3-methylpyrazin-2-yl)-7H-pyrrolo[2,3-d]pyrimidin-4-yl)-3-methylpiperazine-1-carboxylate]",–,–,–,500 to 2000 nM,> 2000 nM,500 to 2000 nM
"CC1CN(C(=O)OC(C)(C)C)CCN1c1ncnc2c1c(C1CCOCC1)cn2-c1cccc(Cl)c1 (stereo not drawn) [Compound 466, tert-butyl 4-(7-(3-chlorophenyl)-5-(tetrahydro-2H-pyran-4-yl)-7H-pyrrolo[2,3-d]pyrimidin-4-yl)-3-methylpiperazine-1-carboxylate]",–,–,–,< 100 nM,500 to 2000 nM,< 100 nM

# More lines, now with the values ahead:
EC50 (TRPML1),EC50 (TRPML2),EC50 (TRPML3),EC50 (TRPML1; fluorescent calcium assay),EC50 (TRPML2; fluorescent calcium assay),EC50 (TRPML3; fluorescent calcium assay),Compound
–,–,–,100 to 500 nM,500 to 2000 nM,100 to 500 nM,"C[C@H]1CN(C(=O)OC(C)(C)C)CCN1c1ncnc2c1c(C1=CCOCC1)cn2-c1cc(F)cc(F)c1 [Compound 473, tert-butyl (S)-4-(7-(3,5-difluorophenyl)-5-(3,6-dihydro-2H-pyran-4-yl)-7H-pyrrolo[2,3-d]pyrimidin-4-yl)-3-methylpiperazine-1-carboxylate]"
–,–,–,< 100 nM,< 100 nM,< 100 nM,"C[C@H]1CN(C(=O)OC(C)(C)C)CCN1c1ncnc2c1c(N1CCC1)cn2-c1cccc(Cl)c1 [Compound 493, tert-butyl (S)-4-(5-(azetidin-1-yl)-7-(3-chlorophenyl)-7H-pyrrolo[2,3-d]pyrimidin-4-yl)-3-methylpiperazine-1-carboxylate]"
–,–,–,< 100 nM,100 to 500 nM,< 100 nM,"CCN(CC)c1cn(-c2cc(C#N)ccn2)c2ncnc(N3CCN(C(=O)OC(C)(C)C)C[C@@H]3C)c12 [Compound 424, tert-butyl (S)-4-(7-(4-cyanopyridin-2-yl)-5-(diethylamino)-7H-pyrrolo[2,3-d]pyrimidin-4-yl)-3-methylpiperazine-1-carboxylate]"
–,–,–,< 100 nM,100 to 500 nM,< 100 nM,"C[C@H]1CN(C(=O)OC(C)(C)C)CCN1c1ncnc2c1c(C1CC1)cn2-c1cc(F)ccn1 [Compound 453, tert-butyl (S)-4-(5-cyclopropyl-7-(4-fluoropyridin-2-yl)-7H-pyrrolo[2,3-d]pyrimidin-4-yl)-3-methylpiperazine-1-carboxylate]"
–,–,–,< 100 nM,< 100 nM,< 100 nM,"C[C@@H]1CN(c2ncnc3c2c(-c2ccccc2F)cn3-c2cc(Cl)ccn2)[C@@H](C)CN1C(=O)OC(C)(C)C [Compound 454, tert-butyl (2R,5S)-4-(7-(4-chloropyridin-2-yl)-5-(2-fluorophenyl)-7H-pyrrolo[2,3-d]pyrimidin-4-yl)-2,5-dimethylpiperazine-1-carboxylate]"
–,–,–,500 to 2000 nM,500 to 2000 nM,100 to 500 nM,"C[C@@H]1CN(C(=O)OC(C)(C)C)CCN1c1ncnc2c1c(N1CCOCC1)cn2-c1cccc(Cl)c1 [Compound 229, tert-Butyl (R)-4-(7-(3-chlorophenyl)-5-morpholino-7H-pyrrolo[2,3-d]pyrimidin-4-yl)-3-methylpiperazine-1-carboxylate]"
100 to 500 nM,500 to 2000 nM,100 to 500 nM,–,–,–,"CCc1ccnc(-n2cc(C(F)(F)F)c3c(N4C[C@@H](C)N(C(=O)OC(C)(C)C)C[C@@H]4C)ncnc32)c1 [Compound 718, tert-butyl (2R,5S)-4-(7-(4-ethylpyridin-2-yl)-5-(trifluoromethyl)-7H-pyrrolo[2,3-d]pyrimidin-4-yl)-2,5-dimethylpiperazine-1-carboxylate]"
< 100 nM,> 2000 nM,100 to 500 nM,–,–,–,"C[C@@H]1CN(c2ncnc3c2c(CC(F)(F)F)cn3-c2nccc(C#N)n2)[C@@H](C)CN1C(=O)OC(C)(C)C [Compound 617, tert-butyl (2R,5S)-4-(7-(4-cyanopyrimidin-2-yl)-5-(2,2,2-trifluoroethyl)-7H-pyrrolo[2,3-d]pyrimidin-4-yl)-2,5-dimethylpiperazine-1-carboxylate]"
